Structures can show the parent of a compound that is named as a salt.
Tests used:
[1] = test system: carrageenan induced acute inflammatory pain in rats; assay: carrageenan induced acute inflammatory pain (paw pressure test); type: in vivo; conditions: for ED50: Rattus norvegicus, 0.25 h, acute pain, 15 min p. appl.; for time at which the peak effect was reached: p. appl., timepoint of first measurement
From the text: (§1) The weight ratios of the components (a) and (b) that will lead to a supra-additive effect (synergistic effect) of the inventive pharmaceutical composition may be determined via the paw pressure test of Randall and Selitto as described in Arch. Int. Pharmacodyn., 1957, 111: 409 to 419, which is a model for inflammatory pain. The respective part of the literature is hereby incorporated by reference and forms part of the present disclosure. Accordingly, the weight ratios of the components (a) and (b) that will lead to a supra-additive effect (synergistic effect) of the inventive pharmaceutical composition were determined in a model of acute pain (A) and a model of chronic pain (B).
Acute inflammation was induced by injection of a 0.1 ml carrageenan solution (0.5% in distilled water) subcutaneously into the plantar surface of the right hind paw of the rat. The mechanical nociceptive threshold was measured using an Algesiometer (Ugo Basile, Italy). The device generates a mechanical force with a linear increase over time. The force was applied to the dorsal surface of the inflamed hind paw via a cone-shaped stylus with a rounded tip (3 mm^2). The nociceptive threshold (Tv) was defined as the force at which the rat vocalises (cut-off force 450 g). Compounds or vehicle were given 3 h after carrageenan injection. The mechanical nociceptive threshold was measured at different times after the drug or vehicle administration. The drug effects are expressed as percentages of the maximal possible effect (MPE) based on the following formula: %MPE=(Tv drug−Tv control)/(cut-off−Tv control)×100. The group size is n=12.
(§2) The analysis of the results with respect to a supra-additive effect of the inventive pharmaceutical composition comprising the components (a) and (b) was carried out via statistical comparison of the theoretical additive ED50-value with the experimentally determined ED50-value of a so-called fixed ratio combination (isobolographic analysis according to Tallarida J T, Porreca F, and Cowan A. Statistical analysis of drug-drug and site-site interactions with isobolograms. Life Sci. 1989; 45: 947-961). The interactions studies presented herein were performed using equieffective doses of the two components, calculated from the ratio of the respective ED50 values of the components if administered alone.

[2] = test system: CFA induced chronic inflammatory pain in rats; assay: Complete Freund Adjuvant (CFA) induced chronic inflammatory pain (paw pressure test); type: in vivo; conditions: for ED50: Rattus norvegicus, ip, 0.25 h, chronic pain, 15 min p. appl.; for time at which the peak effect was reached: p. appl., timepoint of first measurement
From the text: as §1
Chronic inflammation was induced by an intraplantar injection of 0.05 mL of a CFA solution (Mycobacterium tuberculosis, H37 Ra, Difco Laboratories, Detroit, Mich., U.S.A.; 1 mg/mL in mineral oil) into one hind paw. The mechanical nociceptive threshold is measured before (prevalue) and one day after CFA injection using an Algesiometer (Ugo Basile, Italy). The device generates a mechanical force with a linear increase over time. The force is applied to the dorsal surface of the inflamed rat hind paw via a cone-shaped stylus with a rounded tip (2 mm tip diameter). The nociceptive threshold is defined as the force (in grams) at which the rat vocalises (cut-off force 450 g). The mechanical nociceptive threshold is measured at different timepoints after the drug or vehicle administration. The antinociceptive and antihyperalgesic activity of the tested substance is expressed as percentages of the maximal possible effect (%MPE). The maximal possible effect is defined as the percentage of prevalue withdrawal treshold before CFA-injection. The group size is n=10.
as §2

[3] = clinical studies, compared with morphine; cited from earlier work
[4] = target: recombinantly produced μ-opioid receptor (Homo sapiens, UniProt P35372); conditions: compared with morphine; cited from earlier work
[5] = test system: diabetic hyperalgesia in male C57/BL/6 mice; assay: streptozotocin-induced diabetic heat hyperalgesia, hot plate 50 °C; type: in vivo

Chain of recombinantly produced μ-opioid receptor (P35372 whole entry): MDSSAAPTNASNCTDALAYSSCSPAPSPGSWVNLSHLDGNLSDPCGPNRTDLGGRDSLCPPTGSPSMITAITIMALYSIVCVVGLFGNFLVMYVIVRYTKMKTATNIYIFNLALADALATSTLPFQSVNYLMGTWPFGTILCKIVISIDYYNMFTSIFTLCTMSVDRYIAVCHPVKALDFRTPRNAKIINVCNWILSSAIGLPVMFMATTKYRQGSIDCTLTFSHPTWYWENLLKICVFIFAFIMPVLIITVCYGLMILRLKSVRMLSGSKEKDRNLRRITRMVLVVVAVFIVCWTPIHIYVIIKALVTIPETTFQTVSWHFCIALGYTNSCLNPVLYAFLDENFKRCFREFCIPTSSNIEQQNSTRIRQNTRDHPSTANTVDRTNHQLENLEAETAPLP

Structure (SMILES) | ED50 ([1]; ip) | time at which the peak effect was reached [1] | ED50 [2] | time at which the peak effect was reached [2] | ED50 ([1]; iv) | pain-alleviating action relative to morphine [3] | affinity to the recombinantly produced μ-opioid receptor relative to morphine [4] | combined intrathecal and intracerebroventricular ED 50 compared to theoretical additive effects ([5]; FIG. 7, p <0.001) | ED-50 ([5]; combination of intrathecal and intracerebroventricular administration, threshold values after 15 minutes) | ED-50 ([5]; intracerebroventricular administration, thermal hyperalgesia threshold values after 15 minutes) | inhibition of diabetic heat hyperalgesia ([5]; intracerebroventricular, 0.1, 0.3 and 1.00 μg (FIGS. 3 and 4)) | ED-50 ([5]; intrathecal administration, thermal hyperalgesia threshold values after 15 minutes) | inhibition of diabetic heat hyperalgesia ([5]; intrathecal plus intracerebroventricular, simultaneously (FIGS. 5 and 6)) | inhibition of diabetic heat hyperalgesia ([5]; intrathecal, 0.316, 1.00 and 3.16 μg (FIGS. 1 and 2))
CCN(CC)CC(=O)Nc1c(C)cccc1C [Lidocaine, lidocaine hydrochloride] | 32.4 mg/kg | 15 min | 26.8 mg/kg | 15 min | – | – | – | – | – | – | – | – | – | –
CC[C@@H](c1cccc(O)c1)[C@@H](C)CN(C)C [tapentadol, (1 R,2R)-3-(3-dimethylamino-1-ethyl-2-methyl-propyl)-phenol] | – | 15 min | 6.34 mg/kg | 15 min | 1.75 mg/kg | two to three times less | 18 times less | synergistically better | 0.053 (0.032-0.074) mg/animal | 0.18 (0.14-0.22) mg/animal | dose-dependent inhibition | 0.42 (0.26-0.58) mg/animal | dose-dependent inhibition | dose-dependent inhibition

Reference: patent publication US20200215003A1, “PARENTERAL ADMINISTRATION OF TAPENTADOL” (GRÜNENTHAL GMBH, priority 2011, published 2020)
